The record followed here is patent US4542144A, “Anticonvulsant N-aryl-N'-(2-thiazolidinylidene)ureas” (McNeilab Inc., priority 1983, dated 1985).

This assay has as its system tonic extensor seizure. Description: Maximal Electroshock (MES) test, block of tonic extensor seizure, 45' post dose p.o. Type of assay: in vivo, mice. More on the design: key to MES test results (IA): IA: Inactive. The settings on record: for MES test results (IA) / ED50 / % block (MES test) / MES test results (activity in words): mice, 45' post dose; for ED50: Mus musculus, po, 0.75 h; for potency of 3-Me compound relative to 3-H compound (more potent than 3-H): MES ED50, Compd. No. 18 vs No. 17, No. 28 vs No. 27. An excerpt:
Activity in the MES test, indicating anticonvulsant activity, is characterized by a block of the tonic extensor seizure caused by applying an electric shock to mice via corneal electrodes as described in Swinyard et al., J. Pharmacol. Exp. Ther., 106, 319-330 (1952) and recorded as % block. A more recent description of current practice in anticonvulsant drug screening has also been reported by Swinyard et al., Epilepsia, 19, 409-428 (1978).
In general terms: In the maximal electroshock model the usual endpoint is tonic extension of the hind limbs.

Where [1] appears, read: Table II, 200 mg/kg p.o., only dose tested.

On to `Cc1ccc(NC(=O)N=C2NCCS2)cc1C` [No. 22a, N-(3,4-dimethylphenyl)-N'-(2-thiazolidinylidene)urea], for which the “MES test results (IA)” value (Table II, p.o., dose not given) is “IA”.

The term ED50 denotes the dose that gives a 50% effect, or the effect in half of the subjects. `O=C(N=C1NCCS1)Nc1ccccc1` [Table I No. 1, reference compound] returned an ED50 (Table I) above 200 mg/kg. Take `Cc1ccccc1NC(=O)N=C1NCCS1` [Table I No. 2, reference compound]: the ED50 (Table I) came to 232 mg/kg. Where the note is “Table I, 200 mg/kg p.o.”, the “% block (MES test)” value is on record as 30%. `CN1CCSC1=NC(=O)Nc1ccccc1` [compound 1]: under “Table II, 100 mg/kg p.o., only dose tested”, the “MES test results (IA)” value is recorded as “IA”. `Cc1ccccc1NC(=O)N=C1SCCN1C` [compound 2]: where the note is “Table II”, the ED50 stood at 4.8 mg/kg. For `Cc1cccc(NC(=O)N=C2SCCN2C)c1` [compound 3], the ED50 (Table II) was below 200 mg/kg. For the same compound, the “% block (MES test)” value under setting [1] is 70%. For `Cc1ccc(NC(=O)N=C2SCCN2C)cc1` [compound 4], the “MES test results (IA)” value (Table II, 200 mg/kg p.o.) was “IA”.

In the case of `CN1CCSC1=NC(=O)Nc1ccccc1Cl` [compound 5], for the setting “Table II”, the ED50 is below 200 mg/kg. In addition, under setting [1], the “% block (MES test)” value came to 70% and the “MES test results (activity in words)” value is “Active”. For `CN1CCSC1=NC(=O)Nc1cccc(Cl)c1` [compound 6], for the setting “Table II, 200 mg/kg p.o.”, the “MES test results (IA)” value is “IA”.

As for `CN1CCSC1=NC(=O)Nc1ccc(Cl)cc1` [compound 7], for the setting “Table II, 200 mg/kg p.o.”, the “MES test results (IA)” value is reported as “IA”. For the compound `COc1ccccc1NC(=O)N=C1SCCN1C` [compound 8], where the note is “Table II”, the ED50 stood at 235 mg/kg. `COc1cccc(NC(=O)N=C2SCCN2C)c1` [compound 9] displayed a 50% effective dose (ED50) (Table II) below 200 mg/kg. Under setting [1], the “% block (MES test)” value turned out to be 80% and the “MES test results (activity in words)” value was “Active”. As to `COc1ccc(NC(=O)N=C2SCCN2C)cc1` [compound 10], the “MES test results (IA)” value (Table II, 200 mg/kg p.o.) is reported as “IA”.

Under “Table II”, `CN1CCSC1=NC(=O)Nc1ccccc1C(F)(F)F` [compound 11] had an ED50 of 92.2 mg/kg.

`CN1CCSC1=NC(=O)Nc1cccc(C(F)(F)F)c1` [compound 12]: the “MES test results (IA)” value (Table II, 200 mg/kg p.o.) is reported as “IA”.

In the case of `CN1CCSC1=NC(=O)Nc1ccc(C(F)(F)F)cc1` [compound 13], where the note is “Table II, 200 mg/kg p.o.”, the “MES test results (IA)” value is given as “IA”. Take `CN1CCSC1=NC(=O)Nc1ccc([N+](=O)[O-])cc1` [compound 14]: the “MES test results (IA)” value (Table II, 200 mg/kg p.o.) is “IA”.

Consider `CCc1cccc(CC)c1NC(=O)N=C1SCCN1C` [compound 15], for which it took a dose of 14.2 mg/kg to reach the 50% effect level (Table II) (ED50). Take `CCc1cccc(C)c1NC(=O)N=C1SCCN1C` [compound 16]: the 50% effective dose (ED50) (Table II) came to 17.4 mg/kg.

Under “Table II”, `Cc1cccc(C)c1NC(=O)N=C1NCCS1` [compound 17] displayed an ED50 of 31 mg/kg. `Cc1cccc(C)c1NC(=O)N=C1SCCN1C` [compound 18]: the “potency of 3-Me compound relative to 3-H compound (more potent than 3-H)” value was found to be 2.6 ×. Besides, the ED50 (Table II) stood at 11.8 mg/kg. In turn, `Cc1ccc(C)c(NC(=O)N=C2SCCN2C)c1` [compound 19] displayed an ED50 (Table II) of 66.1 mg/kg. `Cc1ccc(NC(=O)N=C2SCCN2C)c(C)c1` [compound 20] gave an ED50 (Table II) of 178 mg/kg. Take `Cc1cccc(NC(=O)N=C2SCCN2C)c1C` [compound 21]: the ED50 (Table II) was determined as 37.2 mg/kg. For `Cc1ccc(NC(=O)N=C2SCCN2C)cc1C` [compound 22], the ED50 (Table II) is above 200 mg/kg. The “% block (MES test)” value (Table II, p.o., dose not given) is given as 10%. As to `Cc1cc(C)cc(NC(=O)N=C2SCCN2C)c1` [compound 23], the “MES test results (IA)” value (Table II, 200 mg/kg p.o.) is “IA”. With `CN1CCSC1=NC(=O)Nc1cc(C(F)(F)F)cc(C(F)(F)F)c1` [compound 24], where the note is “Table II, 200 mg/kg p.o.”, the “MES test results (IA)” value is on record as “IA”.

On to `Cc1cc(C)c(NC(=O)N=C2SCCN2C)c(C)c1` [compound 25], for which the ED50 (Table II) was 66.5 mg/kg. `Cc1cccc(Cl)c1NC(=O)N=C1SCCN1C` [compound 26] had an ED50 (Table II) of 15.3 mg/kg. For the compound `O=C(N=C1NCCS1)Nc1c(Cl)cccc1Cl` [compound 27], the ED50 (Table II) was 70.7 mg/kg. Take `CN1CCSC1=NC(=O)Nc1c(Cl)cccc1Cl` [compound 28]: the “potency of 3-Me compound relative to 3-H compound (more potent than 3-H)” value came out at 4 ×. Moreover, the 50% effect level (Table II) (ED50) was put at a dose of 17.4 mg/kg. Turning to `CN1CCSC1=NC(=O)Nc1c(F)cccc1F` [compound 29], the ED50 (Table II) was found to be 22.7 mg/kg. For `CN1CCSC1=NC(=O)Nc1c(Br)cccc1Br` [compound 30], the ED50 (Table II) was 69.6 mg/kg.

`CN1CCSC1=NC(=O)Nc1c(Br)cc(F)cc1Br` [compound 31]: the ED50 (Table II) was below 200 mg/kg. Under setting [1], the “% block (MES test)” value is listed as 80% and the “MES test results (activity in words)” value was “Active”. `CN1CCSC1=NC(=O)Nc1c(Cl)cc(Cl)cc1Cl` [compound 32]: the “MES test results (IA)” value (Table II, 200 mg/kg p.o.) was “IA”.

For the compound `COc1cccc(OC)c1NC(=O)N=C1SCCN1C` [compound 33], the 50% effect level (Table II) (ED50) was put at a dose of 41.2 mg/kg. As to `COc1ccc(NC(=O)N=C2SCCN2C)cc1OC` [compound 34], where the note is “Table II”, the ED50 was above 200 mg/kg. In addition, the “% block (MES test)” value under setting [1] stood at 20%.
